In patent publication US7078404B2, “Acyl-3-carboxyphenylurea derivatives, processes for preparing them and their use” (Sanofi-Aventis Deutschland GmbH, priority 2002, dated 2006):

molecular target: T1, Human glycogen phosphorylase a (Homo sapiens, UniProt P06737); assay: Glycogen phosphorylase a activity test; format: biochemical; conditions: 10 μM concentration of the test substance; GPa measured in the reverse direction, in vitro
T1 sequence (P06737 1-847): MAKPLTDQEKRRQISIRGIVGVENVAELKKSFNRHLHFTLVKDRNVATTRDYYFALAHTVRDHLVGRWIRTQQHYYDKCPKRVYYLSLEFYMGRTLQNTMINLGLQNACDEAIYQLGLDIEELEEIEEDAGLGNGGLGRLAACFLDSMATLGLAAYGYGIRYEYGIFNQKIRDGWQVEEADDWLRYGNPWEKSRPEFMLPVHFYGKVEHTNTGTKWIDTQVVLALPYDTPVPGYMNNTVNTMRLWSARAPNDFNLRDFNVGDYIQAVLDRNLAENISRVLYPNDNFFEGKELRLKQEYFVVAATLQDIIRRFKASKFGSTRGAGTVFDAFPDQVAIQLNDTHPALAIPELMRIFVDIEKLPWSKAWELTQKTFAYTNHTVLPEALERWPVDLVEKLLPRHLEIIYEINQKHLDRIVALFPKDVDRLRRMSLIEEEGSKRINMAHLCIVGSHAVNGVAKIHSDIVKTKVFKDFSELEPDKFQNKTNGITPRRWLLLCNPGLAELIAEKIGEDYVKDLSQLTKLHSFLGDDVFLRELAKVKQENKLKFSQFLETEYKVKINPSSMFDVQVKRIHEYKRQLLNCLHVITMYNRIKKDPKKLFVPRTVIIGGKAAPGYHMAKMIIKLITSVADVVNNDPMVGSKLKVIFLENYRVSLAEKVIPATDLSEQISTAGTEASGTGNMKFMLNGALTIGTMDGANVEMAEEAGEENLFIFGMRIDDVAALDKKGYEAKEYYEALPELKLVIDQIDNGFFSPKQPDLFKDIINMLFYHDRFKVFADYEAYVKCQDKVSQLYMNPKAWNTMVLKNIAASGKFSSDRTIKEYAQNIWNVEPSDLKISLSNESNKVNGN
Procedure: Glycogen Phosphorylase a Activity Test
The effect of compounds on the activity of the active form of glycogen phosphorylase (GPa) was measured in the reverse direction by monitoring the synthesis of glycogen from glucose 1-phosphate by determining the release of inorganic phosphate. All the reactions were carried out as duplicate determinations in 96-well microtiter plates (Half Area Plates, Costar No. 3696), with the change in absorption due to the formation of the reaction product being measured, at the wavelength specified below, in a Multiscan Ascent Elisa Reader (Lab Systems, Finland). In order to measure the enzymic activity of GPa in the reverse direction, the conversion of glucose 1-phosphate into glycogen and inorganic phosphate was measured in accordance with the general method of Engers et al. (Engers HD, Shechosky S, Madsen NB, Can J Biochem 1970 July;48(7): 746–754) but with the following modifications: Human glycogen phosphorylase a (for example containing 0.76 mg of protein/ml (Aventis Pharma Deutschland GmbH), dissolved in buffer solution E (25 mM β-glycerophosphate, pH 7.0, 1 mM EDTA and 1 mM dithiothreitol), was diluted with buffer T (50 mM Hepes, pH 7.0, 100 mM KCl, 2.5 mM EDTA, 2.5 mM MgCl2.6H2O), and addition of 5 mg of glycogen/ml, to a concentration of 10 μg of protein/ml. Test substances were prepared as a 10 mM solution in DMSO and diluted down to 50 μM with buffer solution T. 10 μl of 37.5 mM glucose, dissolved in buffer solution T and 5 mg/ml of glycogen, and also 10 μl of a solution of human glycogen phosphorylase a (10 μg of protein/ml) and 20 μl of glucose 1-phosphate, 2.5 mM, were added to […] of the solution. The basal value of the activity of the glycogen phosphorylase a in the absence of test substance was determined by adding 10 μl of buffer solution T (0.1% DMSO). The mixture was incubated at room temperature for 40 minutes and the inorganic phosphate which was released was measured using the general method of Drueckes et al. (Drueckes P, Schinzel R, Palm D, Anal Biochem […] Sep. 1;230(10):173–177) but with the following modifications: 50 μl of a stop solution of 7.3 mM ammonium molybdate, 10.9 mM zinc acetate, 3.6% ascorbic acid, 0.9% SDS are added to 50 μl of the enzyme mixture. After 60 minutes of incubation at 45° C., the absorption was measured at 820 nm. In order to determine the background absorption, the stop solution was added immediately after adding the glucose 1-phosphate solution in a separate assay. This test was carried out using a 10 μM concentration of the test substance in order to determine the respective inhibition of glycogen phosphorylase a by the test substance in vitro.

| % inhibition at 10 μM | inhibition at 10 µM | Structure (SMILES) |
| --- | --- | --- |
| 62% |  | CCCOc1ccc(C(=O)O)cc1NC(=O)NC(=O)c1ccc(Cl)cc1Cl [Example 20] |
| 90% |  | O=C(NC(=O)c1ccc(Cl)cc1Cl)Nc1cc(C(=O)O)ccc1OCCO [Example 19] |
| 49% |  | O=C(NC(=O)c1ccc(F)cc1Cl)Nc1cc(C(=O)O)ccc1C(F)(F)F [Example 25] |
| 65% |  | NC(CO)(CO)CO.O=C(NC(=O)c1ccc(Cl)cc1Cl)Nc1cc(C(=O)O)ccc1Oc1ccccc1 [Example 24] |
| 72% |  | COCCOc1ccc(C(=O)O)cc1NC(=O)NC(=O)c1ccc(Cl)cc1Cl [Example 22] |
| 55% |  | O=C(NC(=O)c1ccc(Cl)cc1Cl)Nc1cc(C(=O)O)ccc1Oc1ccccc1 [Example 23] |
| 64% |  | CCCCOc1ccc(C(=O)O)cc1NC(=O)NC(=O)c1ccc(Cl)cc1Cl [Example 21] |
| 44% |  | O=C(NC(=O)c1ccc(Cl)cc1Cl)Nc1cc(C(=O)O)ccc1C(F)(F)F [Example 26] |

The next lines start with the compound.

| Structure (SMILES) | % inhibition at 10 μM | inhibition at 10 µM |
| --- | --- | --- |
| COc1ccc(C(=O)O)cc1NC(=O)NC(=O)c1cc(Cl)ccc1Cl [Example 9] | 81% |  |
| COc1ccc(C(=O)O)cc1NC(=O)NC(=O)c1ccc(Cl)cc1Cl [Example 1, 3-[3-(2,4-Dichlorobenzoyl)ureido]-4-methoxybenzoic acid] |  | 95% |
| COc1ccc(C(=O)O)cc1NC(=O)NC(=O)c1ccc(F)cc1F [Example 18] | 69% |  |
| COc1ccc(C(=O)O)cc1NC(=O)NC(=O)c1ccc(C)cc1C [Example 14] | 57% |  |
| NC(CO)(CO)CO.O=C(NC(=O)c1cc(Cl)ccc1Cl)Nc1cc(C(=O)O)ccc1Cl [Example 7] | 54% |  |
| O=C(NC(=O)c1ccc(Cl)cc1Cl)Nc1cc(C(=O)O)ccc1F [Example 4] | 75% |  |
| COc1ccc(C(=O)O)cc1NC(=O)NC(=O)c1ccc(Cl)cc1F [Example 16] | 48% |  |
| COc1ccc(C(=O)O)cc1NC(=O)NC(=O)c1ccc(Cl)c(Cl)c1 [Example 10] | 41% |  |
| O=C(NC(=O)c1ccc(F)cc1F)Nc1cc(C(=O)O)ccc1Cl [Example 17] | 52% |  |
| O=C(NC(=O)c1ccc(Cl)cc1F)Nc1cc(C(=O)O)ccc1Cl [Example 15] | 61% |  |
| COc1ccc(C(=O)O)cc1NC(=O)NC(=O)c1ccccc1Cl [Example 2] | 75% |  |
| O=C(NC(=O)c1ccc(Cl)cc1Cl)Nc1cc(C(=O)O)ccc1O [Example 3] | 74% |  |
| O=C(NC(=O)c1ccccc1Cl)Nc1cc(C(=O)O)ccc1Cl [Example 11] | 49% |  |
| O=C(NC(=O)c1ccc(Cl)cc1Cl)Nc1cc(C(=O)O)ccc1Cl [Example 12] | 83% |  |
| COc1ccc(C(=O)O)cc1NC(=O)NC(=O)c1ccccc1C [Example 8] | 77% |  |
| CCOc1ccc(C(=O)O)cc1NC(=O)NC(=O)c1ccc(Cl)cc1Cl [Example 13] | 86% |  |
| O=C(NC(=O)c1cc(Cl)ccc1Cl)Nc1cc(C(=O)O)ccc1Cl [Example 6] | 57% |  |
